In patent publication US10669242B2 (priority 2016, dated 2020):

The compounds below were run against T1, recombinant glucosyltransferase domain of C. difficile Toxin B/TcdB (Clostridioides difficile, UniProt P18177) (assay: biochemical). Conditions: not given.
T1 construct: 6-His (C); purchased R&D Systems 6246-GT
T1 sequence (P18177 1-543): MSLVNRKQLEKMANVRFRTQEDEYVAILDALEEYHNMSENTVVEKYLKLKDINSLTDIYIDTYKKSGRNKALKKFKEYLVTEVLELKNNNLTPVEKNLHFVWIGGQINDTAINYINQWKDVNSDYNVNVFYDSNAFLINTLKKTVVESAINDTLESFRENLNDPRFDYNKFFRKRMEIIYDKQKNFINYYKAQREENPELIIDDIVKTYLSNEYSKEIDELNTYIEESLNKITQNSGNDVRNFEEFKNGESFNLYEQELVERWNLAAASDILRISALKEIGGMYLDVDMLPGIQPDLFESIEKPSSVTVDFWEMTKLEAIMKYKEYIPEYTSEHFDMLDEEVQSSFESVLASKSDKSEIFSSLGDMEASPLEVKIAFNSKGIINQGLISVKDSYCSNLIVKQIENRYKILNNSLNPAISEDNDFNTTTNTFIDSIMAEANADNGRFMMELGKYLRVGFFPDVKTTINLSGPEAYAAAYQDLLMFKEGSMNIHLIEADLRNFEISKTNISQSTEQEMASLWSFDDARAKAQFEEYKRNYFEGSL

**Q.** Which IC50 does the source give for `Cc1ccc(NC(=O)c2ccc(CN3C(=O)c4ccc(Cl)cc4NC(=O)[C@H]3CCN(C)C)cc2)nc1` [Example 10f, (R)-4-((8-chloro-3-(2-(dimethylamino)ethyl)-2,5-dioxo-2,3-dihydro-1H-benzo[e][1,4]diazepin-4(5H)-yl)methyl)-N-(5-methylpyridin-2-yl)benzamide] here?
**A.** 10000 to 35000 nM

**Q.** `O=C(Nc1ccccn1)c1ccc(CN2C(=O)c3ccc(Cl)cc3NC(=O)[C@H]2Cc2ccc(F)cc2)cc1` [Example 4i, (R)-4-((8-chloro-3-(4-fluorobenzyl)-2,5-dioxo-2,3-dihydro-1H-benzo[e][1,4]diazepin-4(5H)-yl)methyl)-N-(pyridin-2-yl)benzamide] was tested. Which IC50 did it give?
**A.** < 100 nM

**Q.** Which IC50 does the source give for `CCc1ccc(NC(=O)c2ccc(CN3C(=O)c4ccc(Cl)cc4NC(=O)[C@H]3Cc3cccnc3)cc2)nc1` [Example 5k, (R)-4-((8-chloro-2,5-dioxo-3-(pyridin-3-ylmethyl)-2,3-dihydro-1H-benzo[e][1,4]diazepin-4(5H)-yl)methyl)-N-(5-ethylpyridin-2-yl)benzamide] here?
**A.** < 100 nM

**Q.** How did the IC50 turn out when `O=C1Nc2cc(Cl)ccc2C(=O)N(Cc2ccc3c(c2)CN(c2ccccn2)C3=O)[C@@H]1Cc1ccccn1` [Example 49d] was run?
**A.** 100 to 999 nM

**Q.** How did the IC50 turn out when `Cc1ccc(NC(=O)c2ccc(CN3C(=O)c4ccc(Cl)cc4NC(=O)[C@H]3Cc3ccccn3)s2)nc1` [Example 4bs, (R)-5-((8-chloro-2,5-dioxo-3-(pyridin-2-ylmethyl)-2,3-dihydro-1H-benzo[e][1,4]diazepin-4(5H)-yl)methyl)-N-(5-methylpyridin-2-yl)thiophene-2-carboxamide] was run?
**A.** 100 to 999 nM

**Q.** How did the IC50 turn out when `COc1cnc(NC(=O)c2ccc(CN3C(=O)c4ccc(Cl)cc4NC(=O)[C@H]3Cc3ccccn3)cc2)cn1` [Example 5v, (R)-4-((8-chloro-2,5-dioxo-3-(pyridin-2-ylmethyl)-2,3-dihydro-1H-benzo[e][1,4]diazepin-4(5H)-yl)methyl)-N-(5-methoxypyrazin-2-yl)benzamide] was run?
**A.** < 100 nM

**Q.** How did the IC50 turn out when `Cc1cnc(NC(=O)c2ccc(S(=O)(=O)N3Cc4ccc(Cl)cc4NC(=O)[C@H]3Cc3ccccn3)cc2)nc1` [Example 19g, (R)-4-((8-chloro-2-oxo-3-(pyridin-2-ylmethyl)-2,3-dihydro-1H-benzo[e][1,4]diazepin-4(5H)-yl)sulfonyl)-N-(5-methylpyrimidin-2-yl)benzamide] was run?
**A.** < 100 nM

**Q.** For `C[C@@H]1C(=O)Nc2cc(Cl)ccc2C(=O)N1Cc1ccc(C(=O)Nc2ccc(N3CCN(C)CC3)cn2)cc1` [Example 4bh, (R)-4-((8-chloro-3-methyl-2,5-dioxo-2,3-dihydro-1H-benzo[e][1,4]diazepin-4(5H)-yl)methyl)-N-(5-(4-methylpiperazin-1-yl)pyridin-2-yl)benzamide], which IC50 is on record?
**A.** 100 to 999 nM

**Q.** For `Cc1nc2cccnc2c(=O)n1-c1ccc(CN2C(=O)c3ccc(Cl)cc3NC(=O)[C@H]2Cc2ccccn2)cc1` [Example 47a, (R)-8-Chloro-4-(4-(2-methyl-4-oxopyrido[3,2-d]pyrimidin-3(4H)-yl)benzyl)-3-(pyridin-2-ylmethyl)-3,4-dihydro-1H-benzo[e][1,4]diazepine-2,5-dione], which IC50 is on record?
**A.** < 100 nM

**Q.** With `O=C(Nc1cc(CN2C(=O)c3ccc(Cl)cc3NC(=O)[C@H]2Cc2ccccn2)ccc1C(=O)O)c1ccccn1` [Example 21a, (R)-4-((8-Chloro-2,5-dioxo-3-(pyridin-2-ylmethyl)-2,3-dihydro-1H-benzo[e][1,4]diazepin-4(5H)-yl)methyl)-2-(picolinamido)benzoic Acid] as the compound, how does the IC50 read?
**A.** 1000 to 10000 nM

**Q.** For `O=C(Nc1ncc(C(F)(F)F)cn1)c1ccc(CN2C(=O)c3ccc(Cl)cc3NC(=O)[C@H]2Cc2ccccn2)cc1` [Example 49a, (R)-4-((8-Chloro-2,5-dioxo-3-(pyridin-2-ylmethyl)-2,3-dihydro-1H-benzo[e][1,4]diazepin-4(5H)-yl)methyl)-N-(5-(trifluoromethyl)pyrimidin-2-yl)benzamide], which IC50 is on record?
**A.** < 100 nM

**Q.** `O=C(Nc1ccccn1)c1ccc(CN2C(=O)c3ccc(Cl)cc3NC(=O)[C@H]2Cc2ccccn2)s1` [Example 4bq, (R)-5-((8-chloro-2,5-dioxo-3-(pyridin-2-ylmethyl)-2,3-dihydro-1H-benzo[e][1,4]diazepin-4(5H)-yl)methyl)-N-(pyridin-2-yl)thiophene-2-carboxamide] was tested. Which IC50 did it give?
**A.** 100 to 999 nM

Same assay, conditions: read-out: TcdB UDP-Glucose hydrolysis activity (IC50, coded); UDP-Glucose hydrolysis assay, fluorescence polarization

**Q.** With `O=C1Nc2cc(Cl)ccc2C(=O)N(C[C@H]2CC[C@H](C(=O)c3cccn4ccnc34)CC2)[C@@H]1Cc1ccccn1` [Example 34b] as the compound, how does the IC50 read?
**A.** < 100 nM
